Tests used:
Test in all cases: relative viability (nuclei count vs DMSO), 5 days (fraction); higher = more cells survive
Cediranib + Pictilisib = compound: COc1cc2c(Oc3ccc4[nH]c(C)cc4c3F)ncnc2cc1OCCCN1CCCC1 [Cediranib] + CS(=O)(=O)N1CCN(Cc2cc3nc(-c4cccc5[nH]ncc45)nc(N4CCOCC4)c3s2)CC1 [Pictilisib] (partner 1 µM)
Summary of the method: (§1)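 Lung cancer cell lines were seeded in 1536-well plates and dosed by pin tool the next day, with either a single drug or a fixed anchor-drug dose combined with five library-drug doses (not always all listed) spaced in √10 steps. Five days later, one step fixed the cells and stained their nuclei (final 0.05% Triton X-100, 1% formaldehyde, 1 ug/ml Hoechst), and nuclei were counted on 4× images. Relative viability is the nuclei count in treated wells divided by the count in vehicle wells, and each value is the median of duplicate plates.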

Decitabine + Navitoclax = compound: Nc1ncn([C@H]2C[C@H](O)[C@@H](CO)O2)c(=O)n1 [Decitabine] + CC1(C)CCC(c2ccc(Cl)cc2)=C(CN2CCN(c3ccc(C(=O)NS(=O)(=O)c4ccc(N[C@H](CCN5CCOCC5)CSc5ccccc5)c(S(=O)(=O)C(F)(F)F)c4)cc3)CC2)C1 [Navitoclax] (partner 0.5 µM)
Summary of the method: as §1

Cediranib + Luminespib = compound: COc1cc2c(Oc3ccc4[nH]c(C)cc4c3F)ncnc2cc1OCCCN1CCCC1 [Cediranib] + CCNC(=O)c1noc(-c2cc(C(C)C)c(O)cc2O)c1-c1ccc(CN2CCOCC2)cc1 [Luminespib] (partner 0.01 µM)
Summary of the method: as §1

Decitabine + Tozasertib = compound: Nc1ncn([C@H]2C[C@H](O)[C@@H](CO)O2)c(=O)n1 [Decitabine] + Cc1cc(Nc2cc(N3CCN(C)CC3)nc(Sc3ccc(NC(=O)C4CC4)cc3)n2)n[nH]1 [Tozasertib] (partner 0.1 µM)
Summary of the method: as §1

| Cell Line | relative viability (Cediranib + Pictilisib; first compound 0.04 µM) | relative viability (Cediranib + Pictilisib; first compound 0.1265 µM) | relative viability (Cediranib + Pictilisib; first compound 0.4 µM) | relative viability (Cediranib + Pictilisib; first compound 1.265 µM) | relative viability (Cediranib + Pictilisib; first compound 4 µM) | relative viability (Decitabine + Navitoclax; first compound 0.04 µM) | relative viability (Decitabine + Navitoclax; first compound 0.1265 µM) | relative viability (Decitabine + Navitoclax; first compound 0.4 µM) | relative viability (Decitabine + Navitoclax; first compound 1.265 µM) | relative viability (Decitabine + Navitoclax; first compound 4 µM) | relative viability (Cediranib + Luminespib; first compound 0.04 µM) | relative viability (Cediranib + Luminespib; first compound 0.1265 µM) | relative viability (Cediranib + Luminespib; first compound 0.4 µM) | relative viability (Cediranib + Luminespib; first compound 1.265 µM) | relative viability (Cediranib + Luminespib; first compound 4 µM) | relative viability (Decitabine + Tozasertib; first compound 0.04 µM) | relative viability (Decitabine + Tozasertib; first compound 0.1265 µM) | relative viability (Decitabine + Tozasertib; first compound 0.4 µM) | relative viability (Decitabine + Tozasertib; first compound 1.265 µM) | relative viability (Decitabine + Tozasertib; first compound 4 µM) |
| --- | --- | --- | --- | --- | --- | --- | --- | --- | --- | --- | --- | --- | --- | --- | --- | --- | --- | --- | --- | --- |
| NCI-H1915 | 0.874 | 0.722 | 0.87 | 0.837 | 1.04 | 0.338 | 0.253 | 0.223 | 0.184 | 0.188 | 0.972 | 0.759 | 0.787 | 0.813 | 0.875 | 0.274 | 0.224 | 0.174 | 0.175 | 0.189 |
| NCI-H1944 | 0.33 | 0.494 | 0.328 | 0.297 | 0.328 | 0.689 | 0.669 | 0.564 | 0.423 | 0.365 | 0.767 | 0.796 | 0.741 | 0.72 | 0.963 | 0.234 | 0.268 | 0.22 | 0.201 | 0.186 |
| NCI-H1975 | 0.316 | 0.466 | 0.275 | 0.239 | 0.29 | 0.431 | 0.317 | 0.291 | 0.256 | 0.256 | 0.166 | 0.14 | 0.207 | 0.194 | 0.196 | 0.279 | 0.239 | 0.132 | 0.152 | 0.129 |
| NCI-H1993 | 0.883 | 0.806 | 0.719 | 0.805 | 0.809 | 0.917 | 0.993 | 0.906 | 0.732 | 0.87 | 0.637 | 0.901 | 0.906 | 0.851 | 0.597 | 0.682 | 0.591 | 0.683 | 0.568 | 0.553 |
| NCI-H2009 | 0.769 | 0.325 | 0.644 | 0.639 | 0.822 | 0.945 | 0.722 | 0.568 | 0.416 | 0.263 | 1.09 | 0.97 | 0.995 | 1.12 | 1.05 | 0.628 | 0.451 | 0.399 | 0.312 | 0.252 |
| NCI-H2023 | 0.269 | 0.101 | 0.226 | 0.193 | 0.236 | 0.609 | 0.517 | 0.379 | 0.259 | 0.198 | 0.844 | 0.639 | 0.732 | 0.405 | 0.53 | 0.218 | 0.226 | 0.157 | 0.0961 | 0.122 |
| NCI-H2085 | 0.466 | 0.501 | 0.473 | 0.419 | 0.399 | 0.882 | 0.736 | 0.67 | 0.497 | 0.467 | 0.506 | 0.406 | 0.42 | 0.421 | 0.478 | 0.666 | 0.669 | 0.54 | 0.454 | 0.437 |
| NCI-H2087 | 0.921 | 0.763 | 0.825 | 0.752 | 0.935 | 0.635 | 0.562 | 0.458 | 0.369 | 0.357 | 0.194 | 0.191 | 0.191 | 0.136 | 0.144 | 0.229 | 0.194 | 0.176 | 0.129 | 0.153 |
